How the values were obtained:
[1] = target: T1, Cbl-b (Homo sapiens, UniProt Q13191); test: Cbl-b inhibition assay (Cbl-b activity assay, FRET, Biological Example 1; 100 mM NaCl, 60 nM Src kinase); type: biochemical; conditions: upper bound stated in text lists; read-out: IC50 values in the Cbl-b inhibition assay of Biological Example 1
Source text: FIG. 1A and FIG. 1B show a series of diagrams depicting the activity assay utilized to assay inhibition of Cbl-b activity by a Cbl-b inhibitor. FIG. 1A: The activity assay mixture comprises an N-terminal biotinylated Avi-tagged Cbl-b, an E2 enzyme (i.e., UbcH5B) irreversibly conjugated to Bodipy-Fluorescein tagged ubiquitin (i.e., UbcH5B-Ub), a Src kinase, streptavidin-terbium, and assay buffer. Phosphorylation of Cbl-b by the Src kinase allows UbcH5B-Ub to bind to Cbl-b and bring the Bodipy-Fluorescein tagged ubiquitin in proximity to the streptavidin-terbium bound to the N-terminal biotinylated Avi-tagged Cbl-b. […] FIG. 1B: In the presence of a Cbl-b inhibitor, such as one described herein, Cbl-b is unable to bind UbcH5B-Ub. The lack of a FRET signal indicates Cbl-b is inhibited by the Cbl-b inhibitor. Ub indicates ubiquitin; N-Avi indicates biotinylated Avi-tag at the N-terminus of Cbl-b; inhibitor indicates Cbl-b inhibitor.
The lack of a FRET signal indicates Cbl-b is inhibited by the Cbl-b inhibitor. In FIG. 1A and FIG. 1B, Ub indicates ubiquitin; N-Avi indicates biotinylated Avi-tag at the N-terminus of Cbl-b; and inhibitor indicates Cbl-b inhibitor.

[2] = target: T1, Cbl-b; test: Cbl-b activity assay (Cbl-b inhibition assay), TR-FRET of Cbl-b interaction with UbcH5B-Ub; type: biochemical; conditions: assay buffer with 100 mM NaCl, 60 nM Src kinase; read-out: Cbl-b activity IC50
How it was run: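 UbcH5B (C85K) conjugated to N-terminally Bodipy-Fluorescein-labeled ubiquitin served as the fluorescent partner. After compound preincubation, Src kinase (60 nM) with 1 mM ATP and 5 mM MgCl2 (final) was added for 1.5 h, followed by a further 1 h incubation. Some values were obtained with 50 mM NaCl and 30 nM Src.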

T1 sequence (Q13191 36-427): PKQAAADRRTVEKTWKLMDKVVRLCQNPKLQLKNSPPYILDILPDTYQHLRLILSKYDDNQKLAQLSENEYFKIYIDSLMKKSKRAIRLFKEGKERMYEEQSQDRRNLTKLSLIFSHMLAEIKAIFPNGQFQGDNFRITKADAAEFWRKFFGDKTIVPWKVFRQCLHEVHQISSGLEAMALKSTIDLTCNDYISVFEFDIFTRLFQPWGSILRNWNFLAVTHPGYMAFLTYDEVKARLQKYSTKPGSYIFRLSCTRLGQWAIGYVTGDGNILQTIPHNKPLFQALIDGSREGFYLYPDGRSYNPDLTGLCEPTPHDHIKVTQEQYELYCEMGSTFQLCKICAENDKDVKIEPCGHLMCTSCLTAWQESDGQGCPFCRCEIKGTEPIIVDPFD

| Structure (SMILES) | IC50 [1] [nM] | IC50 [2] [nM] |
| --- | --- | --- |
| C[C@@H]1CN(Cc2cc(C(=O)Nc3cccc(C4(Cc5nncn5C)COC4)c3)nc(C3CC3)c2)CCO1 [Compound 501, 6-cyclopropyl-N-(3-{3-[(4-methyl-1,2,4-triazol-3-yl)methyl]oxetan-3-yl}phenyl)-4-{[(2R)-2-methylmorpholin-4-yl]methyl}pyridine-2-carboxamide] | ≤ 100 | < 100 |
| Cc1cc(C(=O)Nc2cccc(C3(Cc4[nH]ncc4C)COC3)c2)nc(C2CC2)n1 [Compound 510, 2-cyclopropyl-6-methyl-N-(3-{3-[(4-methyl-1H-pyrazol-3-yl)methyl]oxetan-3-yl}phenyl)pyrimidine-4-carboxamide] | ≤ 100 | < 100 |
| Cc1cc(C(=O)Nc2cccc(C3=C(c4nncn4C)CCC3)c2)nc(C2CC2)n1 [Compound 518, 2-cyclopropyl-6-methyl-N-(3-(2-(4-methyl-4H-1,2,4-triazol-3-yl)cyclopent-1-en-1-yl)phenyl)pyrimidine-4-carboxamide] | ≤ 300 | 100 to 300 |
| Cn1cnnc1CC1(c2cccc(N3Cc4c(cc(CN5CCOC(CCF)C5)cc4C(F)(F)F)C3=O)c2)COC1 (centres unmarked) [Compound 521, 6-{[2-(2-fluoroethyl)morpholin-4-yl]methyl}-2-(3-{3-[(4-methyl-1,2,4-triazol-3-yl)methyl]oxetan-3-yl}phenyl)-4-(trifluoromethyl)-3H-isoindol-1-one] | ≤ 100 | < 100 |
| C[C@@H]1CN(Cc2cc3c(c(C(F)(F)F)c2)CN(c2cccc(-c4c(-c5nncn5C)cnn4C)c2)C3=O)CCO1 [Compound 524, (R)-2-(3-(l-methyl-4-(4-methyl-4H-1,2,4-triazol-3-yl)-1H-pyrazol-5-yl)phenyl)-6-((2-methylmorpholino)methyl)-4-(trifluoromethyl)isoindolin-1-one] | ≤ 100 | < 100 |
| C[C@@H]1CN(Cc2cc3c(c(C(F)(F)F)c2)CN(c2cccc(-c4c(-c5nncn5C)cnn4C)c2)C3=O)C[C@H](C)O1 [Compound 525, 6-(((2S,6S)-2,6-dimethylmorpholino)methyl)-2-(3-(l-methyl-4-(4-methyl-4H-1,2,4-triazol-3-yl)-1H-pyrazol-5-yl)phenyl)-4-(trifluoromethyl)isoindolin-1-one] | ≤ 100 | < 100 |
| Cn1cnnc1CC1(c2cccc(N3Cc4c(cc(CC5CNCCC5=O)cc4C(F)(F)F)C3=O)c2)COC1 (centres unmarked) [Compound 530, 2-(3-(3-((4-methyl-4H-1,2,4-triazol-3-yl)methyl)oxetan-3-yl)phenyl)-6-((4-oxopiperidin-3-yl)methyl)-4-(trifluoromethyl)isoindolin-1-one] | ≤ 100 | < 100 |
| CC(c1cc2c(c(C(F)(F)F)c1)CN(c1cccc(C3(Cc4nncn4C)COC3)c1)C2=O)n1ccnc1 (centres unmarked) [Compound 542, 6-(1-(1H-imidazol-1-yl)ethyl)-2-(3-(3-((4-methyl-4H-1,2,4-triazol-3-yl)methyl)oxetan-3-yl)phenyl)-4-(trifluoromethyl)isoindolin-1-one] | ≤ 100 | < 100 |
| CN(c1cc2c(c(C(F)(F)F)c1)CN(c1cccc([C@@](C)(F)C(F)(F)c3nncn3C)c1)C2=O)[C@H]1CNC[C@@H]1F [Example 550, 6-(((3S,4S)-4-fluoropyrrolidin-3-yl)(methyl)amino)-2-(3-((R)-1,1,2-trifluoro-1-(4-methyl-4H-1,2,4-triazol-3-yl)propan-2-yl)phenyl)-4-(trifluoromethyl)iso-indolin-1-one] | ≤ 100 | < 100 |
| CN(c1cc2c(c(C(F)(F)F)c1)CN(c1cccc([C@@](C)(F)C(F)(F)c3nncn3C)c1)C2=O)[C@@H]1CNC[C@H]1F [Example 551, 6-(((3R,4R)-4-fluoropyrrolidin-3-yl)(methyl)amino)-2-(3-((R)-1,1,2-trifluoro-1-(4-methyl-4H-1,2,4-triazol-3-yl)propan-2-yl)phenyl)-4-(trifluoromethyl)iso-indolin-1-one] | ≤ 100 | < 100 |
| Cn1cnnc1CC1(c2cccc(N3Cc4c(cc(CN5CCC(F)CC5)cc4C4CC4)C3=O)c2)COC1 [Example 552, 4-cyclopropyl-6-((4-fluoropiperidin-1-yl)methyl)-2-(3-(3-((4-methyl-4H-1,2,4-triazol-3-yl)methyl)oxetan-3-yl)phenyl)isoindolin-1-one] | ≤ 100 | < 100 |
| Cn1cnnc1CC1(c2cccc(N3Cc4c(cc(C(O)C(F)(F)F)cc4C(F)(F)F)C3=O)c2)COC1 (centres unmarked) [Example 580, 2-(3-(3-((4-Methyl-4H-1,2,4-triazol-3-yl)methyl)oxetan-3-yl)phenyl)-6-(2,2,2-trifluoro-1-hydroxyethyl)-4-(trifluoromethyl)isoindolin-1-one] | ≤ 100 | < 100 |
| Cc1cc(C(=O)Nc2cccc(C3(Cc4nncn4C)COC3)c2)n2nc(C)cc2n1 [Example 597, 2,5-dimethyl-N-(3-(3-((4-methyl-4H-1,2,4-triazol-3-yl)methyl)oxetan-3-yl)phenyl)pyrazolo[1,5-a]pyrimidine-7-carboxamide] | ≤ 300 | 100 to 300 |
| Cn1cnnc1CC1(c2cccc(N3Cc4c(cc(C5CCCOC5)cc4C(F)(F)F)C3=O)c2)COC1 (centres unmarked) [Example 615, 2-(3-(3-((4-methyl-4H-1,2,4-triazol-3-yl)methyl)oxetan-3-yl)phenyl)-6-(tetrahydro-2H-pyran-3-yl)-4-(trifluoromethyl)isoindolin-1-one] | ≤ 100 | < 100 |
| CC1=C(c2cc3c(c(C(F)(F)F)c2)CN(c2cccc(C4(Cc5nncn5C)COC4)c2)C3=O)CCO1 [Example 616, 6-(2-methyl-4,5-dihydrofuran-3-yl)-2-(3-(3-((4-methyl-4H-1,2,4-triazol-3-yl)methyl)oxetan-3-yl)phenyl)-4-(trifluoromethyl)isoindolin-1-one] | ≤ 100 | < 100 |
| Cn1cnnc1C[C@H](c1cccc(N2Cc3c(cccc3C(F)(F)F)C2=O)c1)C(F)F [Example 617, (R)-2-(3-(1,1-difluoro-3-(4-methyl-4H-1,2,4-triazol-3-yl)propan-2-yl)phenyl)-4-(trifluoromethyl)isoindolin-1-one] | ≤ 300 | 100 to 300 |
| Cn1cnnc1CC1(c2cccc(N3Cc4c(cc(CN5CC[C@H](F)[C@@H](F)C5)cc4C(F)(F)F)C3=O)c2)COC1 [Example 626a, 6-(((3S,4S)-3,4-difluoropiperidin-1-yl)methyl)-2-(3-(3-((4-methyl-4H-1,2,4-triazol-3-yl)methyl)oxetan-3-yl)phenyl)-4-(trifluoromethyl)isoindolin-1-one] | ≤ 100 | < 100 |
| Cn1cnnc1CC1(c2cccc(N3Cc4c(cc(CN5CC[C@@H](F)[C@H](F)C5)cc4C(F)(F)F)C3=O)c2)COC1 [Example 626b, 6-(((3R,4R)-3,4-difluoropiperidin-1-yl)methyl)-2-(3-(3-((4-methyl-4H-1,2,4-triazol-3-yl)methyl)oxetan-3-yl)phenyl)-4-(trifluoromethyl)isoindolin-1-one] | ≤ 100 | < 100 |
| Cn1cnnc1CC1(c2cccc(N3Cc4c(cc(CN5CCOC(C(F)F)C5)cc4C(F)(F)F)C3=O)c2)COC1 (centres unmarked) [Example 630, 6-{[2-(difluoromethyl)morpholin-4-yl]methyl}-2-(3-{3-[(4-methyl-1,2,4-triazol-3-yl)methyl]oxetan-3-yl}phenyl)-4-(trifluoromethyl)-3H-isoindol-1-one] | ≤ 100 | < 100 |
| Cn1cnnc1CC1(c2cccc(N3Cc4c(cc(CN5CCc6ccncc6C5)cc4C(F)(F)F)C3=O)c2)COC1 [Example 638, 6-((3,4-dihydro-2,7-naphthyridin-2(1H)-yl)methyl)-2-(3-(3-((4-methyl-4H-1,2,4-triazol-3-yl)methyl)oxetan-3-yl)phenyl)-4-(trifluoromethyl)isoindolin-1-one] | ≤ 100 | < 100 |
| C[C@@H]1CCN(Cc2cc3c(c(C(F)(F)F)c2)CN(c2cccc(C4(Cc5nncn5C)COC4)c2)C3=O)C[C@@H]1F [Example 639a, 6-(((3R,4R)-3-fluoro-4-methylpiperidin-1-yl)methyl)-2-(3-(3-((4-methyl-4H-1,2,4-triazol-3-yl)methyl)oxetan-3-yl)phenyl)-4-(trifluoromethyl)isoindolin-1-one] | ≤ 100 | < 100 |
| C[C@H]1CCN(Cc2cc3c(c(C(F)(F)F)c2)CN(c2cccc(C4(Cc5nncn5C)COC4)c2)C3=O)C[C@H]1F [Example 639b, 6-(((3S,4S)-3-fluoro-4-methylpiperidin-1-yl)methyl)-2-(3-(3-((4-methyl-4H-1,2,4-triazol-3-yl)methyl)oxetan-3-yl)phenyl)-4-(trifluoromethyl)isoindolin-1-one] | ≤ 100 | < 100 |

Source: patent US20220324835A1 (Nurix Therapeutics, Inc., priority 2018, published 2022)
